Measured values from patent US8293796B2, “Modulator” (University College London, priority 2004, dated 2012).
Entries after “also recorded” stand apart in the source; their conditions may differ. Read-outs that look alike come from different tables or passages of the source.

Legend:
wildtype mice = assay: hypothermia and hypomotility (temperature and 5 minute motility in openfield activity chamber) in wildtype mice; format: in vivo, mouse
Experimental: Many CB1 agonists are known to induce psychotrophic associated “tetrad effects” due to central binding to CB receptors [Howlett, A. C. et al, International Union of Pharmacology. XXVII, Pharmacol. Rev. 2002, 54, 161-202]. Studies were undertaken to investigate whether the compounds of the present invention also bound to central CB1 receptors. This is assessed by measuring the ability of the compounds to induce sedation, ptosis, hypomotility, catalepsy and hypothermia in normal mice [Brooks, J. W. et al, Eur. J. Pharmacol. 2002, 439, 83-92], following i.v., i.p. and oral administration.
A CNS excluded compound provides a tool for examining if a component of a cannabinoid anti-spastic effect is mediated via peripheral CB receptors. […] As stated above there is no established role for peripheral cannabinoid receptors in the control of spasticity, however, spasticity is likely to be a product of nerve damage in the spinal cord, at least in EAE, [Baker, D. et al, FASEB J. 2001, 15, 300-302; Baker, D. et al, J. Neuroimmunol. 1990, 28, 261-270] and aberrant signals to and from the musculature are likely, at least in part to contribute to the muscle spasms occurring in spasticity.

CREAE mice = assay: assessment of spasticity in CREAE mice (resistance to full flexion of hindlimbs against a strain gauge); format: in vivo, mouse
Experimental: Spasticity developed following the development of chronic EAE induced by injection of mouse spinal cord homogenate in Freund's complete adjuvant on day 0 & 7. This occurred 60-80 days post-induction in wildtype ABH.Cnr1+/+ mice and 30-40 days post-induction in CB1 receptor gene (Cnr1)-deficient ABH.Cnr1−/− mice). Spasticity was assessed by resistance to full flexion of hindlimbs against a strain gauge [Baker et al 2000], before and after treatment with either the full CB1/CB2 agonist CP55,940 or full CB1/CB2/“CB3” agonist injected intraperitoneally or compound (16) injected intravenously in vehicle (alcohol:cremophor:PBS (1:1:18)). […] Statistical analysis was performed on raw data and were analysed pairwise from baseline levels (*** P<0.001).
Further studies were undertaken using cannabinoid knockout mice, including CB1, CB2, VR-1, FAAH and conditional CB1 knockout mice. […] Spasticity is assessed (n=6-7/group) by resistance to hindlimb flexion using a strain gauge [Baker, D. et al, Nature 2000, 404, 84-87]. Animals serve as their own controls and will be analysed in a pairwise fashion. […] Low doses of CB1 agonists and CNS active CP55,940, as control, are locally (subcutaneous, intra-muscularly) administered into spastic ABH mice and the lack of activity in a contralateral limb analysed [Fox, A. et al, Pain 2001, 92, 91-100]. […]

CB1 receptor = molecular target: T1, CB1 receptor (Mus musculus, UniProt P47746); assay: vas deferens inhibition of contractions (cannabinoid receptor modulating activity)
T1 construct: from tissue; host or cells: mouse vas deferens (isolated tissue preparation)
T1 sequence (P47746 whole entry): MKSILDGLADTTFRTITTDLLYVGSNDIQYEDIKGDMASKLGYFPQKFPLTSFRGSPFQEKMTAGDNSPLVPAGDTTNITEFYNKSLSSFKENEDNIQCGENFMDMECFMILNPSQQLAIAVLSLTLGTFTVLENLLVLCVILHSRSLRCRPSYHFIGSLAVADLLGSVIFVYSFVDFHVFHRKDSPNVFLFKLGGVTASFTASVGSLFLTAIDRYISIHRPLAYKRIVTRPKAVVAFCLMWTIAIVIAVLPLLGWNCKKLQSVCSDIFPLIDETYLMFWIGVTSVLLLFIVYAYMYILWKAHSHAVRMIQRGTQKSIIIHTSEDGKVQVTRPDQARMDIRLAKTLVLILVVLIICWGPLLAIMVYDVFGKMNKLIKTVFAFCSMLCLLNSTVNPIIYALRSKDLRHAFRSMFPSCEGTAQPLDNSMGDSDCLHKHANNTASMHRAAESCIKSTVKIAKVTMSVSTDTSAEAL

SMILES	CNS effects: temperature and motility (wildtype mice; wildtype mice, 20 min after injection, dose not given)	anti-spastic activity (CREAE mice; administered in PBS alone (not shown))	anti-spastic activity (CREAE mice; wildtype ABH mice with CREAE, injected intravenously in alcohol:cremophor:PBS (1:1:18), 10 minutes after administration)	effect of CB1 antagonist SR141716A on the compound's effect in vas deferens (CB1 receptor; in presence of SR141716A)	IC50 (CB1 receptor; mouse vas deferens preparation, FIG. 1, read-out: IC50, vas deferens preparation)	IC50 (CB1 receptor; rat vas deferens, FIG. 1 legend, read-out: IC50, inhibition of contractions)	CNS effects: hypothermia and hypomotility (wildtype mice; wildtype mice, 20 mg/kg i.v.)	CNS effects: hypothermia and hypomotility (wildtype mice; wildtype/normal mice, 1 mg/kg, 20 min after injection, 1 mg/kg)
Cc1c(C(=O)c2cccc3ccccc23)c2cccc3c2n1[C@H](CN1CCOCC1)CO3 [R(+)WIN55,212, reference compound]	induced typical cannabinmimetic effects	–	–	–	–	–	–	–
CC(CO)NC(=O)c1cccc(/C=C\CCCC(=O)N(C)C)c1 (racemic) [Compound 16, 3-(5-Dimethylcarbamoyl-pent-1-enyl)-N-(2-hydroxy-1-methyl-ethyl)benzamide]	–	active	significant anti-spastic activity; also recorded: marked effect on spasticity; also recorded: selective inhibition of spasticity without producing CNS effects	neutralised by the CB1-antagonist SR141716A; also recorded: inhibited by the selective CB1 antagonist SR141716A	~1000 pM	~100 pM	inactive	inactive; also recorded: no hypothermia or hypomotility was observed
